Source: paper PMC4850295, “Using a Genetically Encoded Sensor to Identify Inhibitors of Toxoplasma gondii Ca^2+ Signaling” (The Journal of Biological Chemistry, 2016)

Test system: T1, GCaMP5-expressing T. gondii
T1 construct: whole extracellular parasites expressing GCaMP5 Ca2+ sensor
Design: species or system GCaMP5-expressing Toxoplasma gondii, extracellular; GCaMP5 fluorescence (cytosolic Ca2+) after 100 uM zaprinast in compound-pretreated extracellular parasites, background-subtracted, relative to zaprinast alone
Conditions: 100 uM zaprinast stimulation; 10 min pretreatment; mean of two replicates; 0.23 h
Summary of the method: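 Read-out is GCaMP5 calcium fluorescence (ex 485/em 525 nm) taken 4 min after 100 μM zaprinast at 37 °C, following 10 min compound pretreatment at 10 μM in duplicate biological replicates. Values are basal-subtracted fold change versus zaprinast-only controls; parasites held extracellular in Ringer's solution.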

SMILES	fold change in fluorescence relative to zaprinast alone
O=C(O[C@H]1CN[C@H](C#Cc2cc3ncnc(Nc4ccc(OCc5cccc(F)c5)c(Cl)c4)c3s2)C1)N1CCOCC1 [GW869810X]	1.08
Clc1cccc(-c2nc(Nc3ccncc3)c3ccccc3n2)c1 [GW873004X]	1.301
Cc1nc(-c2ccccc2)n2nc(NCCCN3CCOCC3)ncc12 [GW874091X]	1.267
Cc1cccc(-c2nc(Nc3cccc(C(N)=O)c3)c3ccccc3n2)n1 [GW876019X]	1.051
Fc1ccc(-c2ncn(CCCN3CCOCC3)c2-c2ccncc2)cc1 [SB-210313]	1.039
Fc1ccc(-c2ncn(CCCNCc3ccccc3)c2-c2ccncc2)cc1 [SB-210486]	0.7327
Fc1ccc(-c2ncn(CCCN3CCOCC3)c2-c2ccccn2)cc1 [SB-211742]	1.072
Fc1ccc(-c2ncn(CCCN3CCOCC3)c2-c2cccnc2)cc1 [SB-211743]	1.228
Nc1nccc(-c2c(-c3ccc(F)cc3)ncn2CCCN2CCOCC2)n1 [SB-216385]	1.045
CSc1nccc(-c2c(-c3ccc(F)cc3)ncn2CCCN2CCOCC2)n1 [SB-217146-A]	0.6021
Fc1ccc(-c2nc[nH]c2-c2ccncc2)cc1 [SB-217360]	0.1031
FC(F)(F)c1ccc(-c2ncn(CCCN3CCOCC3)c2-c2ccncc2)cc1 [SB-217780]	0.91
CCOC(=O)N1CCC(n2cnc(-c3ccc(F)cc3)c2-c2ccnc(N)n2)CC1 [SB-219952]	0.8316
Nc1nccc(-c2c(-c3ccc(F)cc3)ncn2C2CCN(Cc3ccccc3)CC2)n1 [SB-219980]	0.5084
Nc1nccc(-c2c(-c3ccc(F)cc3)ncn2C2CCNCC2)n1 [SB-220025-R]	1.112
CC1(C)CC(n2cnc(-c3ccc(F)cc3)c2-c2ccnc(N)n2)CC(C)(C)N1 [SB-221466]	1.33
CNc1nccc(-c2c(-c3ccc(F)cc3)ncn2CCCN2CCOCC2)n1 [SB-222516]	0.95
Cc1cc(-c2c(-c3ccc(F)cc3)ncn2CCCN2CCOCC2)nc(N)n1 [SB-222517]	1.044
CNc1nccc(-c2c(-c3ccc(F)cc3)ncn2C2CCN(C)CC2)n1 [SB-222903]	0.211
CC(C)N1CCC(n2cnc(-c3ccc(F)cc3)c2-c2ccnc(N)n2)CC1 [SB-223132]	0.4026
Nc1nccc(-c2c(-c3ccc(F)cc3)ncn2C2CCC(O)CC2)n1 (centres unmarked) [SB-223133]	0.9972
CCNc1nccc(-c2c(-c3ccc(F)cc3)ncn2C2CCN(C)CC2)n1 [SB-226605]	0.6067

SMILES	fold change in fluorescence relative to zaprinast alone
CN1CCC(n2cnc(-c3ccc(F)cc3)c2-c2ccnc(NCCO)n2)CC1 [SB-226879]	1.236
CN1CCC(n2cnc(-c3ccc(F)cc3)c2-c2ccnc(NC3CCNCC3)n2)CC1 [SB-229482]	0.6668
Nc1nccc(-c2c(-c3ccc(F)cc3)ncn2C2CCN(CC(F)(F)F)CC2)n1 [SB-236560]	0.7968
CN1CCC(n2cnc(-c3ccc(F)cc3)c2-c2ccnc(Nc3ccccc3)n2)CC1 [SB-236687]	1.382
Fc1ccc(-c2ncn(C3CCNCC3)c2-c2ccnc(Nc3ccccc3)n2)cc1 [SB-238039-R]	0.4937
NC(=O)c1ccc(Oc2nccc(-c3c(-c4ccc(F)cc4)ncn3C3CCNCC3)n2)cc1 [SB-242718]	1.27
CCc1ccc(Oc2nccc(-c3c(-c4ccc(F)cc4)ncn3C3CCNCC3)n2)cc1 [SB-242719]	1.455
Fc1ccc(-c2ncn(C3CCNCC3)c2-c2ccnc(Oc3ccc(-c4ccccc4)cc3)n2)cc1 [SB-245391]	1.215
CCOc1nccc(-c2c(-c3ccc(F)cc3)ncn2C2CCNCC2)n1 [SB-249175]	0.6135
Fc1ccc(-c2ncn(C3CCNCC3)c2-c2ccnc(Oc3ccc4c(c3)OCO4)n2)cc1 [SB-250715]	1.074
Fc1ccc(-c2ncn(C3CCNCC3)c2-c2ccnc(Oc3ccc(F)c(F)c3)n2)cc1 [SB-253228]	1.173
NC(=O)Cc1ccccc1Oc1nccc(-c2c(-c3ccc(F)cc3)ncn2C2CCNCC2)n1 [SB-264865]	1.313
COc1nccc(-c2c(-c3ccc(F)cc3)ncn2CCCN2CCOCC2)n1 [SB-282852]	0.8251
CN1C(=O)C(Nc2ccccc2)=C(c2ccccc2)C1=O [SB-300079]	0.899
O=C1NC(=O)C(c2ccc(Cl)cc2)=C1Nc1cccc(Cl)c1 [SB-317651]	0.9895
CSc1ccc(NC2=C(c3ccc(Cl)cc3)C(=O)NC2=O)cc1 [SB-317658]	0.971
CN(C1=C(c2ccccc2)C(=O)NC1=O)c1ccccc1 [SB-334860]	0.8099
COc1cccc(C2=C(N(C)c3ccccc3)C(=O)NC2=O)c1 [SB-334865]	0.953
O=C1NC(=O)C(c2ccc(Cl)cc2)=C1Nc1ccc(O)cc1 [SB-340867]	1.192
COc1cccc(C2=C(Nc3cccc(Cl)c3)C(=O)NC2=O)c1 [SB-341556]	1.087
O=C1NC(=O)C(c2ccccc2Cl)=C1Nc1cccc(Cl)c1 [SB-342409]	0.95
CSc1ccc(NC2=C(c3ccccc3Cl)C(=O)NC2=O)cc1 [SB-342411]	0.8828

SMILES	fold change in fluorescence relative to zaprinast alone
N#Cc1c(NC(=O)c2ccc(F)cc2)sc2c1CCCC2 [SB-347804]	1.012
COc1ccc(C2=C(N3CCc4ccccc43)C(=O)NC2=O)cc1 [SB-361058]	1.153
O=C1NC(=O)C(N2CCc3ccccc32)=C1c1ccccc1Cl [SB-373598]	1.071
COc1ccccc1C1=C(Nc2cccc(O)c2)C(=O)NC1=O [SB-381891]	0.9532
O=C1NC(=O)C(c2ccccc2Cl)=C1Nc1cccc(O)c1 [SB-390527]	1.108
O=C1NC(=O)C(c2ccccc2)=C1Nc1cccc(O)c1 [SB-390534]	0.8317
COc1ccc(C2=C(Nc3cccc(C(=O)O)c3)C(=O)NC2=O)cc1 [SB-390765]	0.6431
COc1ccc(C2=C(Nc3cccc(O)c3)C(=O)NC2=O)cc1 [SB-390766]	1.133
COc1cccc(C2=C(Nc3cc(Cl)c(O)c(Cl)c3)C(=O)NC2=O)c1 [SB-390767]	1.06
COc1cccc(C2=C(Nc3ccc(Cl)c(C(=O)O)c3)C(=O)NC2=O)c1 [SB-390769]	1.176
COc1cccc(C2=C(Nc3cccc(C(=O)O)c3)C(=O)NC2=O)c1 [SB-390770]	0.98
COc1cccc(C2=C(Nc3cccc(O)c3)C(=O)NC2=O)c1 [SB-390771]	0.8334
c1ccc(-c2nc3n(c2-c2ccc4c(c2)OCO4)CCC3)nc1 [SB-400868-A]	0.8655
CN1C(=O)C(Nc2ccc(Cl)c(C(=O)O)c2)=C(c2ccc(Cl)cc2)C1=O [SB-404290]	0.783
CN1C(=O)C(Nc2cc(Cl)c(O)c(Cl)c2)=C(c2ccc(Cl)cc2)C1=O [SB-404321]	1.253
O=C1NC(=O)C(N2CCc3ccccc32)=C1c1cccc(Cl)c1 [SB-408010]	0.7986
O=C1NC(=O)C(c2cccc(Cl)c2)=C1Nc1ccc(Cl)c(C(=O)O)c1 [SB-409513]	1.123
O=C1NC(=O)C(c2cccc(Cl)c2)=C1Nc1ccc(O)c(Cl)c1 [SB-409514]	1.132
Oc1ccc(-c2nc(-c3ccccc3)[nH]c2-c2ccncc2)cc1 [SB-428218-A]	1.23
OCc1ccc(-c2nc(-c3ccc4c(c3)OCO4)c(-c3ccccn3)[nH]2)cc1 [SB-431533]	1.145
NC(=O)c1ccc(-c2nc(-c3ccccn3)c(-c3ccc4c(c3)OCO4)[nH]2)cc1 [SB-431542-A]	1.08
